Read-outs that look alike come from different tables or passages of the source.
Key:
[1] = target: T1, human LSD1-CoREST complex (Homo sapiens, UniProt O60341); experiment: HRP-coupled LSD1 inhibition assay; format: biochemical; settings: 10 min preincubation; for IC50: read-out: IC50 (hLSD1 direct inhibition)
T1 construct: made in house
Procedure: Protein expression, thermal stability, and inhibition of human LSD1-CoREST were performed using established protocols. […] The reaction was initiated by adding an equal volume of the substrate solution to the enzyme–inhibitor mixture, and resorufin fluorescence (excitation at 530–570 nm and emission at 580–590 nm) was detected with a Clariostar plate reader.

[2] = target: T1, human LSD1-CoREST complex; experiment: ThermoFAD thermal stability assay; format: binding; settings: for ΔTm: LSD1-CoREST thermal stability
Procedure: Compounds 14–22 were tested against the human LSD1-CoREST complex to determine their inhibitory activity. […] ThermoFAD assays were then performed to assess the impact of 14–22 on the thermal stability (ΔT m values, Table ) of the LSD1-CoREST complex. The most significant shifts in Tm values corresponded to the strongest binders. […] Compound 22 was not tested, considering its previous negative results.
Protein expression, thermal stability, and inhibition of human LSD1-CoREST were performed using established protocols. […] LSD1-CoREST (0.4 μM) was preincubated with the inhibitor at 25 °C for 10 min in the presence of 5% DMSO. The reaction was initiated by adding an equal volume of the substrate solution to the enzyme–inhibitor mixture, and resorufin fluorescence (excitation at 530–570 nm and emission at 580–590 nm) was detected with a Clariostar plate reader.

[3] = target: T1, human LSD1-CoREST complex; experiment: Spectrophotometric analysis of flavin cofactor bleaching; format: biochemical
adult worms [4] = experiment: Adult worm viability phenotypic assay, 72 h; settings: Schistosoma mansoni, read-out: IC50 (adult worm viability)
NTS = experiment: Speed-of-action assay in NTS; format: cell-based, Schistosoma mansoni; settings: for Percentage of effect: NTS; for IC50: Schistosoma mansoni, read-out: IC50 (speed of action, NTS)
Text: (§1) To better characterize a selection of our LSD1i in vitro, we assessed the onset of their action, defined as the time required for an observable antischistosomal effect. […] For detailed percentages of activity at each time point, refer to the Supporting Information (Tables S2 and S3 in Supporting Information).

[5] = system: S. mansoni juvenile forms; experiment: Speed-of-action assay in juvenile forms; format: cell-based, Schistosoma mansoni; settings: for IC50: Schistosoma mansoni, read-out: IC50 (speed of action, juvenile forms); for Percentage of effect: juvenile forms
Text: as §1

[6] = system: newly transformed schistosomula (NTS); experiment: NTS viability phenotypic screening, 72 h
Procedure: For NTS and adult worms, transparent flat-bottom 96- and 24-well plates were used, respectively (Sarstedt, Switzerland). For juvenile worms, 48-well plates were used with 3–6 worms per plate and RPMI medium with 5% FCS and 1% penicillin/streptomycin. Compounds were initially tested at 20 and 10 μM in triplicate on NTS and repeated once; each well contained 30–40 NTS. Phenotypic reference points such as motility, morphology, and granularity were used to score incubated parasites’ overall viability (scores from 0 to 3). […] Identified hits from the NTS screening were tested on adult worms. […] The experiment was conducted in duplicate and repeated; standard deviations were calculated from two wells. […] For all in vitro assays, negative controls (DMSO at the highest tested concentration) were included.

[7] = MTT cytotoxicity in RPE cells; format: cell-based; settings: human, retinal pigment epithelial (RPE) cells
Procedure: (§2) The MTT method was used to evaluate cell viability after 72 h of treatment.
(§3) Human commercial lung diploid fibroblasts (MRC-5), and diploid retinal epithelium cells (RPE) were obtained from the American Type Culture Collection (ATCC) and kindly provided by Dr Francesca Degrassi (CNR IBPM) and maintained in minimal essential medium or DMEM-F12 medium supplemented with fetal calf serum, antibiotics, and nonessential amino acids. Cells were grown at 37 °C, in a humidified atmosphere, with 5% CO2. For experiments, cells were seeded in 200 μL of complete in each well of a 96-well microtiter plate. After 24 h, compounds were added at 5, 10, 25, and 50 μM for 72 h in sextuplicate. MTT was added (0.5 mg/mL), incubated for 4 h at 37 °C, and dissolved in 200 μL of isopropyl alcohol. Absorbance was measured at 570 nm (ELISA reader, DASIT), and cell viability was calculated as viability=(ODoftreatedcells/ODofcontrolcells)×100

adult worms [8] = experiment: Pairing and egg laying of adult worms; format: cell-based, Schistosoma mansoni; settings: for eggs' number: 20 μM
Procedure: Selected compounds 2, 15, 18, and 19 were tested on adult worms to evaluate their effects on pairing and egg laying.

[9] = MTT cytotoxicity in MRC-5 cells; format: cell-based; settings: human, MRC-5 lung diploid fibroblast cells
Procedure: as §2, §3

[10] = 5 μM, read-out: percentage of viability, 72 h
[11] = 10 μM, read-out: percentage of viability, 72 h
[12] = 25 μM, read-out: percentage of viability, 72 h
[13] = 50 μM, read-out: percentage of viability, 72 h
[14] = read-out: IC50 (cell viability)

For `CC#Cc1ccc(C(=O)Nc2cccc(C3CC3N)c2)cc1.Cl` (stereo not shown) [Compound 21, N-(3-(2-Aminocyclopropyl)phenyl)-4-(prop-1-yn-1-yl)benzamide Hydrochloride], the “IC50 (hLSD1 direct inhibition)” value [1] was “inactive”, the IC50 [1] was > 100 µM and the “thermal shift compared to the control” value [2] was “no thermal shift”. The ΔTm [2] was 0 °C and the “bleaching of the flavin cofactor” value [3] was “no bleaching”.
With `CC#Cc1ccc(C(=O)Nc2ccc(C3CC3N)cc2)cc1.Cl` (stereo not shown) [Compound 18, N-(4-(2-Aminocyclopropyl)phenyl)-4-(prop-1-yn-1-yl)benzamide Hydrochloride] the IC50 (adult worms [4]) was > 10 µM, the Percentage of effect (NTS; 4 h, 10 μM) was 26.92% and the Percentage of effect (NTS; 4 h, 20 μM) was 30.77%. For the same compound, the Percentage of effect (NTS; 24 h, 10 μM) was 51.79%, the Percentage of effect (NTS; 24 h, 20 μM) was 75% and the Percentage of effect (NTS; 48 h, 10 μM) was 81.63%. For the same compound, the Percentage of effect (NTS; 48 h, 20 μM) was 87.76%, the Percentage of effect (NTS; 72 h, 20 μM) was 100% and the IC50 (NTS; 4 h) was > 20 µM. The IC50 (NTS; 24 h) was 6.9 µM, the IC50 (NTS; 48 h) was 4.4 µM and the IC50 (NTS; 72 h) was 2.4 µM. For the same compound, the IC50 ([5]; 4 h) was > 20 µM, the IC50 ([5]; 24 h) was > 20 µM and the IC50 ([5]; 48 h) was > 20 µM. It also gave an IC50 ([5]; 72 h) of 3.8 µM, a Percentage of effect ([5]; 4 h, 1 μM) of 20% and a Percentage of effect ([5]; 4 h, 10 μM) of 20%. It also gave a Percentage of effect ([5]; 4 h, 20 μM) of 43.64%, a Percentage of effect ([5]; 24 h, 1 μM) of 24.14% and a Percentage of effect ([5]; 24 h, 10 μM) of 31.03%. It also gave a Percentage of effect ([5]; 24 h, 20 μM) of 46.15%, a Percentage of effect ([5]; 48 h, 1 μM) of 34.62% and a Percentage of effect ([5]; 48 h, 10 μM) of 42.31%. It also gave a Percentage of effect ([5]; 48 h, 20 μM) of 47.92%, a Percentage of effect ([5]; 72 h, 1 μM) of 42.81% and a Percentage of effect ([5]; 72 h, 10 μM) of 44.77%. The Percentage of effect ([5]; 72 h, 20 μM) was 70.83%, the IC50 [1] was 0.13 ± 0.02 µM and the “Percentage of reduction of NTS viability, 72 h” value (“Percentage of reduction … 72 h” for short) ([6]; 1 μM) was 22.6 ± 1.9%. For the same compound, the “Percentage of reduction … 72 h” value ([6]; 10 μM) was 95.8 ± 4.2%, the “Percentage of reduction … 72 h” value ([6]; 20 μM) was 100 ± 0.0% and the IC50 ([6]; Schistosoma mansoni, read-out: IC50 (NTS viability)) was 1.76 µM. The ΔTm [2] was “+8 °C”, the viability at 72 h, 5 µM [7, 10] was 82 ± 21% and the viability at 72 h, 10 µM [7, 11] was 86 ± 36%. For the same compound, the viability at 72 h, 25 µM [7, 12] was 104 ± 20%, the viability at 72 h, 50 µM [7, 13] was 95 ± 2% and the IC50 at 72 h [7, 14] was > 100 µM. The “eggs' number” value (adult worms [8]; 4 h) was 0, the “eggs' number” value (adult worms [8]; 8 h) was 0 and the “eggs' number” value (adult worms [8]; 24 h) was 0. For the same compound, the “eggs' number” value (adult worms [8]; 48 h) was 0, the “eggs' number” value (adult worms [8]; 72 h) was 2 and the “effect on worm pairing” value (adult worms [8]; adult worms) was “no impact on worm pairing”. For the same compound, the viability at 72 h, 5 µM [9, 10] was 111 ± 10%, the viability at 72 h, 10 µM [9, 11] was 75 ± 15% and the viability at 72 h, 25 µM [9, 12] was 98 ± 14%. For the same compound, the viability at 72 h, 50 µM [9, 13] was 75 ± 12% and the IC50 at 72 h [9, 14] was > 100 µM.
